What was measured:
[1] = target: T1, Human PDGFRα, cytoplasmic domain (GST-PDGFRα) (Homo sapiens, UniProt P16234); assay: Human PDGFRα biochemical inhibition assay (off-chip Mobility Shift Assay)
T1 construct: made in house

[2] = target: T2, Human PDGFRβ, cytoplasmic domain (GST-PDGFRβ) (Homo sapiens, UniProt P09619); assay: Human PDGFRβ biochemical inhibition assay (off-chip Mobility Shift Assay)
T2 construct: made in house
Method in brief: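 GST-tagged cytoplasmic domain (aa 557-1106) from baculovirus was incubated 1 h at room temperature with compound, CSKtide, ATP at Km and Mg²⁺ in HEPES buffer, pH 7.5. Phosphorylated and unphosphorylated peptide were separated by off-chip mobility shift, and the product ratio P/(P+S) gave percent inhibition.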

T2 sequence (P09619 with tags, fused parts or gaps): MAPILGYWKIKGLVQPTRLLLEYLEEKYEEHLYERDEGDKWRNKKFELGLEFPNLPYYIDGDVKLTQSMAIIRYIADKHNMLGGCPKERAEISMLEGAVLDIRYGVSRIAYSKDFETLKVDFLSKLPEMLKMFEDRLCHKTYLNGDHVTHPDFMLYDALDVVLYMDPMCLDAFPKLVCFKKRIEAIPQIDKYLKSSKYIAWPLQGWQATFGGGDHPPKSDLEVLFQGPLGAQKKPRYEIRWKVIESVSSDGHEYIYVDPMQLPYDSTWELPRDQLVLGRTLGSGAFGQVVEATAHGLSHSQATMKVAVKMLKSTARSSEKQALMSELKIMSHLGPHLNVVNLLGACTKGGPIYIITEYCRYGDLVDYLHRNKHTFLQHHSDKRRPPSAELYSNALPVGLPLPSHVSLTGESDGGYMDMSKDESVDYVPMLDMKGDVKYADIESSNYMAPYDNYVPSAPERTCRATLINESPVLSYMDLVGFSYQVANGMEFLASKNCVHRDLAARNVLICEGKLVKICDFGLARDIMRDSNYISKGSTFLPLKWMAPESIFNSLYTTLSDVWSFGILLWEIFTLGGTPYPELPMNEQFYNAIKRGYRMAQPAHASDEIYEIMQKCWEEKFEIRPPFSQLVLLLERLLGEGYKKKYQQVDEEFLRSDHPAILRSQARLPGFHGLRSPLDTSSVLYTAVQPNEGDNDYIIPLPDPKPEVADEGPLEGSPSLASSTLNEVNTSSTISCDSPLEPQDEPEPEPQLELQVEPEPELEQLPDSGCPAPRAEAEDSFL
T1 sequence (P16234 550-1089 T674I): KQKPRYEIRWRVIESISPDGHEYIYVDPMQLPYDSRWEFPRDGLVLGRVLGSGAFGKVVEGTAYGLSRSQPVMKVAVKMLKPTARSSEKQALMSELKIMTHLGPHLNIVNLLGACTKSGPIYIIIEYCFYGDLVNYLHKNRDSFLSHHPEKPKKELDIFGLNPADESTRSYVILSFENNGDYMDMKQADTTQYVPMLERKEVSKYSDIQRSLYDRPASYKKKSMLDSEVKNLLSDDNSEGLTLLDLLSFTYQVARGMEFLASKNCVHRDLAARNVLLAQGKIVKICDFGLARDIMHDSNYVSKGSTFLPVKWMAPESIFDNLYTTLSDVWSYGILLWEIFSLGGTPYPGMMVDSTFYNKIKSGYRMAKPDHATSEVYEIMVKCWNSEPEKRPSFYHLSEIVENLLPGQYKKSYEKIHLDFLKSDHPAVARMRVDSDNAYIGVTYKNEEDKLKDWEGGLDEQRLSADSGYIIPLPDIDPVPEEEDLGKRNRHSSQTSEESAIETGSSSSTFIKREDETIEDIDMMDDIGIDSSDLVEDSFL

Structure (SMILES)	IC50 [1] [nM]	IC50 [2] [nM]
CCn1cc2ncc(N[C@@H](C)c3cccc(NC(=O)c4cnc(NCCOC)c(C)c4)c3)nc2n1 [Compound 392, (S)-N-(3-(1-((2-ethyl-2H-pyrazolo[3,4-b]pyrazin-6-yl)amino)ethyl)phenyl)-6-((2-methoxyethyl)amino)-5-methylnicotinamide]	300 to 1000	≥ 1000
CCn1cc2ncc(N[C@@H](C)c3cccc(NC(=O)c4ccc(CN5CC6(C5)CC6(F)F)c(C)c4)c3)nc2n1 [Compound 461]	< 300	300 to 1000
Cc1cncc(C(=O)Nc2ccc(F)c([C@H](C)Nc3cnc4cn(CC5CNCCO5)nc4n3)c2)c1 (stereo partly drawn) [Compound 411, N-(4-fluoro-3-((1S)-1-((2-(morpholin-2-ylmethyl)-2H-pyrazolo[3,4-b]pyrazin-6-yl)amino)ethyl)phenyl)-5-methylnicotinamide]	< 300	< 300
C[C@H](Nc1cnc2cnn(C)c2n1)c1cccc(NC(=O)C2CC2C(F)(F)F)c1 (stereo partly drawn) [Compound 52, N-(3-((S)-1-((1-methyl-1H-pyrazolo[3,4-b]pyrazin-6-yl)amino)ethyl)phenyl)-2-(trifluoromethyl)cyclopropane-1-carboxamide]	300 to 1000	≥ 1000
C[C@H](Nc1cnc2cnn(C)c2n1)c1cccc(NC(=O)N2CCc3ccccc3C2)c1 [Compound 55, (S)-N-(3-(1-((1-methyl-1H-pyrazolo[3,4-b]pyrazin-6-yl)amino)ethyl)phenyl)-3,4-dihydroisoquinoline-2(1H)-carboxamide]	< 300	< 300
CCn1cc2ncc(N[C@@H](C)c3cccc(NC(=O)c4cnc5[nH]nc(C)c5c4)c3)nc2n1 [Compound 61, (S)-N-(3-(1-((2-ethyl-2H-pyrazolo[3,4-b]pyrazin-6-yl)amino)ethyl)phenyl)-3-methyl-1H-pyrazolo[3,4-b]pyridine-5-carboxamide]	300 to 1000	≥ 1000
CCn1cc2ncc(N[C@@H](C)c3cccc(NC(=O)c4cnc(N5CCN(C)CC5)c(C(F)(F)F)c4)c3)nc2n1 [Compound 422, (S)-N-(3-(1-((2-ethyl-2H-pyrazolo[3,4-b]pyrazin-6-yl)amino)ethyl)phenyl)-6-(4-methylpiperazin-1-yl)-5-(trifluoromethyl)nicotinamide]	< 300	< 300
Cc1cncc(C(=O)Nc2cccc([C@H](C)Nc3cnc4[nH]nc(Br)c4n3)c2)c1 [Compound 549, (S)-N-(3-(1-((3-bromo-1H-pyrazolo[3,4-b]pyrazin-5-yl)amino)ethyl)phenyl)-5-methylnicotinamide]	< 300	< 300
Cc1cncc(C(=O)Nc2cccc([C@H](C)Nc3cnc4cnn(CC5CC5)c4n3)c2)c1 [Compound 181, (S)-N-(3-(1-((1-(cyclopropylmethyl)-1H-pyrazolo[3,4-b]pyrazin-6-yl)amino)ethyl)phenyl)-5-methylnicotinamide]	< 300	< 300
CCn1cc2ncc(N[C@@H](C)c3cccc(NC(=O)c4cnn(CCF)c4)c3)nc2n1 [Compound 298, (S)-N-(3-(1-((2-ethyl-2H-pyrazolo[3,4-b]pyrazin-6-yl)amino)ethyl)phenyl)-1-(2-fluoroethyl)-1H-pyrazole-4-carboxamide]	< 300	300 to 1000
CCn1cc2ncc(N[C@@H](C)c3cc(NC(=O)Cc4cccc(C)c4)ccc3F)nc2n1 [Compound 634, (S)-N-(3-(1-((2-ethyl-2H-pyrazolo[3,4-b]pyrazin-6-yl)amino)ethyl)-4-fluorophenyl)-2-(m-tolyl)acetamide]	< 300	< 300
CCn1cc2ncc(N[C@@H](C)c3cc(NC(=O)Cc4ccc(C5CC5)nc4)ccc3F)nc2n1 [Compound 658, (S)-2-(6-cyclopropylpyridin-3 - yl)-N-(3-(1-((2-ethyl-2H-pyrazolo[3,4-b]pyrazin-6-yl)amino)ethyl)-4-fluorophenyl) acetamide]	300 to 1000	≥ 1000
CCc1nc2cc(N[C@@H](C)c3cccc(NC(=O)c4cncc(C)c4)c3)cnc2[nH]1 [Compound 24]	300 to 1000	300 to 1000
CC(C)c1cc(C(=O)Nc2cccc([C@H](C)Nc3cnc4cnn(C)c4n3)c2)n[nH]1 [Compound 161, (S)-5-isopropyl-N-(3-(1-((1-methyl-1H-pyrazolo[3,4-b]pyrazin-6-yl)amino)ethyl)phenyl)-1H-pyrazole-3-carboxamide]	< 300	< 300

Continued, values first:

IC50 [1] [nM]	IC50 [2] [nM]	Structure (SMILES)
< 300	< 300	COc1cc(C(=O)Nc2cccc([C@H](C)Nc3cnc4cnn(C)c4n3)c2)cnc1OC [Compound 205, (S)-5,6-dimethoxy-N-(3-(1-((1-methyl-1H-pyrazolo[3,4-b]pyrazin-6-yl)amino)ethyl)phenyl)nicotinamide]
< 300	< 300	Cc1cc(C(=O)Nc2cccc([C@H](C)Nc3cnc4cnn(C)c4n3)c2)ccc1C(=O)OCCN1CCOCC1 [Compound 264, 2-morpholinoethyl (S)-2-methyl-4-((3-(1-((1-methyl-1H-pyrazolo[3,4-b]pyrazin-6-yl)amino)ethyl)phenyl)carbamoyl) benzoate]
< 300	< 300	Cc1cncc(C(=O)Nc2cccc([C@H](C)Nc3cnc4cnn(-c5cccnc5)c4n3)c2)c1 [Compound 273, (S)-5-methyl-N-(3-(1-((1-(pyridin-3-yl)-1H-pyrazolo[3,4-b]pyrazin-6-yl)amino)ethyl)phenyl)nicotinamide]
< 300	300 to 1000	CCn1cc2ncc(N[C@@H](C)c3cccc(NC(=O)c4ccc(OC(F)(F)F)nc4)c3)nc2n1 [Compound 282, (S)-N-(3-(1-((2-ethyl-2H-pyrazolo[3,4-b]pyrazin-6-yl)amino)ethyl)phenyl)-6-(trifluoromethoxy)nicotinamide]
< 300	< 300	CCc1cc2ncc(N[C@@H](C)c3cc(NC(=O)c4ccc(C(F)(F)F)nc4)ccc3F)nc2o1 [Compound 619, (S)-N-(3-(1-((6-ethylfuro[2,3-b]pyrazin-3-yl)amino)ethyl)-4-fluorophenyl)-6-(trifluoromethyl)nicotinamide]
< 300	< 300	CCn1cc2ncc(N[C@@H](C)c3cc(NC(=O)Cc4ccc(F)c(C)n4)ccc3C)nc2n1 [Compound 675, (S)-N-(3-(1-((2-ethyl-2H-pyrazolo[3,4-b]pyrazin-6-yl)amino)ethyl)-4-methylphenyl)-2-(5-fluoro-6-methylpyridin-2-yl)acetamide]
< 300	≥ 1000	CCn1cc2ncc(N[C@@H](C)c3cc(NC(=O)Cc4cncc(F)c4)ccc3F)nc2n1 [Compound 653, (S)-N-(3-(1-((2-ethyl-2H-pyrazolo[3,4-b]pyrazin-6-yl)amino)ethyl)-4-fluorophenyl)-2-(5-fluoropyridin-3-yl)acetamide]
< 300	300 to 1000	CCn1cc2ncc(N[C@@H](C)c3cc(NC(=O)Cc4ccc(F)c(CN5CCN(C)CC5)n4)ccc3C)nc2n1 [Compound 726, (S)-N-(3-(1-((2-ethyl-2H-pyrazolo[3,4-b]pyrazin-6-yl)amino)ethyl)-4-methylphenyl)-2-(5-fluoro-6-((4-methylpiperazin-1-yl)methyl)pyridin-2-yl)acetamide]
< 300	< 300	CCCOC(=O)c1ccc(C(=O)Nc2cccc([C@H](C)Nc3cnc4cnn(C)c4n3)c2)cc1C [Compound 254, propyl (S)-2-methyl-4-((3-(1-((1-methyl-1H-pyrazolo[3,4-b]pyrazin-6-yl)amino)ethyl)phenyl)carbamoyl)benzoate]
